Test results taken from article PMC11303761 (Nature Communications, 2024).

Columns and labels:
Format in all cases: cell-based
[1] = target: β2AR (Homo sapiens, UniProt P07550); assay: β-arrestin2 recruitment; conditions: β2-Tango HTLA; agonist alone or with 100 µM PAGln (Fig 2A, 2C)
[2] = target: T1, β1AR (Homo sapiens, UniProt P08588); assay: β-arrestin2 recruitment; conditions: β1-HTLA cells
[3] = target: T1, β1AR; assay: cAMP production in β1-HEK293 cells; conditions: 100 µM

T1 sequence (P08588 whole entry): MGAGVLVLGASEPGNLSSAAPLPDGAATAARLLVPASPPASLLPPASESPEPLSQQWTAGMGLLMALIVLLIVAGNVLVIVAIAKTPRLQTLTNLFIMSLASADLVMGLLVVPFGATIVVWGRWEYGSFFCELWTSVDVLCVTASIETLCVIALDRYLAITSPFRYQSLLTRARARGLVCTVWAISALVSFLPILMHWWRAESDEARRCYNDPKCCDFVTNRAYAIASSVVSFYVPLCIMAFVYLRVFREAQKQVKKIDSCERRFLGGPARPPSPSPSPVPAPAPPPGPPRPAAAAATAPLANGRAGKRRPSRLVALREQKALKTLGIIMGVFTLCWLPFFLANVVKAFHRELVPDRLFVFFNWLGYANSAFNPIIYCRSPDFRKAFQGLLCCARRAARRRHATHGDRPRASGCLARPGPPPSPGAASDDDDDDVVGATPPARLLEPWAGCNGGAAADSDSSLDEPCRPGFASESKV
Chain of β2AR (P07550 whole entry): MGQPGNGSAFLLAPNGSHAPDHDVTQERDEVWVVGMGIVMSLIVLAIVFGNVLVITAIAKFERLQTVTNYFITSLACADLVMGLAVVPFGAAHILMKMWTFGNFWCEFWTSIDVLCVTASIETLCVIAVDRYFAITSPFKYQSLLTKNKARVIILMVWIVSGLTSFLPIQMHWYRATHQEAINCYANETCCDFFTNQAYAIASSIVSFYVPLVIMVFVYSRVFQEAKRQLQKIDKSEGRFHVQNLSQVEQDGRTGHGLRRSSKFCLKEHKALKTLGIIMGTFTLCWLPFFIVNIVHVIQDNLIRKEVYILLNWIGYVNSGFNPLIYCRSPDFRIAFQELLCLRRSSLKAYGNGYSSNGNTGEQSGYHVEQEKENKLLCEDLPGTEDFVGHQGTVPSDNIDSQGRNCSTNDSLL

Row | Structure (SMILES) | Bmax of β-arrestin2 recruitment [1] | effect of PAGln on ISO- or NE-induced β-arrestin2 recruitment [2] | cAMP production by compound alone [3]
1 | NC[C@H](O)c1ccc(O)c(O)c1 [NE, norepinephrine] | 3137 RLU | – | –
2 | NC(=O)CC[C@H](NC(=O)Cc1ccccc1)C(=O)O [PAGln, Phenylacetylglutamine] | – | failed to show any significant effect | failed to induce cAMP production
3 | N[C@@H](Cc1ccccc1)C(=O)O [Phe, phenylalanine] | – | – | failed to induce cAMP production
